Measurements taken from ChEMBL document CHEMBL5096153, “Spirocyclic Scaffolds in Medicinal Chemistry” (J Med Chem, 2021).

What was measured:
[1] = target: T1, Retinoic acid receptor RXR-alpha (Homo sapiens, UniProt P19793); assay: Agonist activity at RXRalpha (unknown origin) using fluorescein-D22 as substrate by fluorescence polarization assay
T1 sequence (P19793 whole entry): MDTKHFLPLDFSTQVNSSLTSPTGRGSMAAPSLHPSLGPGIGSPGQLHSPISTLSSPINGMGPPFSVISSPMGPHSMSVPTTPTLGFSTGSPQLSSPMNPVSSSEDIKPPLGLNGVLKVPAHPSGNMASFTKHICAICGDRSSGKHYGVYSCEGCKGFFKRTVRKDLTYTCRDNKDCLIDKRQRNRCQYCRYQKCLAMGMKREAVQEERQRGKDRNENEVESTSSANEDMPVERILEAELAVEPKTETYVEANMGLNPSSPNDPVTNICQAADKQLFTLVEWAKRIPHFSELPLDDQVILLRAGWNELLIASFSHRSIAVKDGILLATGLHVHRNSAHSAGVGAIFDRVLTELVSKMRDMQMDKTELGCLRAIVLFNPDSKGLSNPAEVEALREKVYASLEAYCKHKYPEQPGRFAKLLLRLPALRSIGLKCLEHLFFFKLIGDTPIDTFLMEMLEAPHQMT

[2] = target: NF-kappa-B essential modulator (Homo sapiens, UniProt Q9Y6K9); assay: Binding affinity to full-length human NEMO (1 to 419 residues) assessed as dissociation constant
Chain of NF-kappa-B essential modulator (Q9Y6K9 whole entry, the tested form may be a part): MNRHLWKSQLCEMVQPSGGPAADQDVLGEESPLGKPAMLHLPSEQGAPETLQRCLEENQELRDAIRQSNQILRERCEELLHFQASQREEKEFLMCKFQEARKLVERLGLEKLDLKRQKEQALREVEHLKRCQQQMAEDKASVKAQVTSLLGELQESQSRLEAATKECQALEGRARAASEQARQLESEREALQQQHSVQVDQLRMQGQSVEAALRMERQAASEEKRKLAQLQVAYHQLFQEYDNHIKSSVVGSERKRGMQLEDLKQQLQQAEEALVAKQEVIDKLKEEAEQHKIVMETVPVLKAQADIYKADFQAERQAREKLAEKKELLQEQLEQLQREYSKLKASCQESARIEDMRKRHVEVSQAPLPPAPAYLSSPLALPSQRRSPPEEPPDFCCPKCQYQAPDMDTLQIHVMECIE

[3] = Cmax in rat plasma at 5 mg/kg, po; assay type: ADME, organism-based; design: dose 5 mg/kg, route po
[4] = AUC (0 to infinity) in rat plasma at 5 mg/kg, po; assay type: ADME, organism-based; design: time infinity, dose 5 mg/kg, route po
[5] = Inhibition of Plasmodium vivax SHMT
[6] = Octanol-water partition coefficient, log P of the compound by LC-MS/MS analysis; assay type: physicochemical
[7] = Metabolic stability in human liver microsomes assessed as compound remaining; assay type: ADME, Microsome
[8] = Selectivity ratio of Ki for rat liver Sigma2 receptor to Ki for Guinea pig brain Sigma1 receptor
[9] = target: T2, Retinoic acid receptor RXR-alpha (Homo sapiens) (UniProt P19793); assay: Agonist activity at RXRalpha (unknown origin) using fluorescein-D22 as substrate by fluorescence polarization assay relative to control
T2 sequence (whole entry): T1 sequence (P19793 whole entry)

[10] = Cytotoxicity against human HUVEC cells assessed as reduction in cell viability; assay type: toxicity, cell-based
Influenza A virus = assay: Antiviral activity against wild-type Influenza A virus A/M2 assessed as viral growth inhibition; assay type: functional, organism-based
[11] = target: Phosphoglycerate mutase 1 (Homo sapiens, UniProt P18669); assay: Inhibition of PGAM1 in human MDA-MB-231 cells; assay type: cell-based
Chain of Phosphoglycerate mutase 1 (P18669 whole entry): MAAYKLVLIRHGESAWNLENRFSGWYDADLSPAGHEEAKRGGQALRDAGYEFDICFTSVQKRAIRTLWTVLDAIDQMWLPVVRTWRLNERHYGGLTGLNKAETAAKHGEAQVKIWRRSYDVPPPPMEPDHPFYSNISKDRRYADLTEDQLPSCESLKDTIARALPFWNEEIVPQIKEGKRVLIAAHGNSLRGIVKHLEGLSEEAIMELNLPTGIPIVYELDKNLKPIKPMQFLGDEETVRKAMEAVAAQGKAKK

MDA-MB-231 = assay: Cytotoxicity against human MDA-MB-231 cells assessed as cell growth inhibition; assay type: functional, cell-based
[12] = AUC (0 to 4 hrs) in rat at 5 mg/kg, po; assay type: ADME, organism-based; design: time < 4 hr, dose 5 mg/kg, route po; details: in vivo
[13] = Volume of distribution in rat at 2 mg/kg, iv; assay type: ADME, organism-based; details: in vivo

Structure (SMILES): CC1(C)CCC(C)(C)c2cc3c(cc21)CCC1(CCc2cc(C(=O)O)ccc2O1)O3 (stereo in doubt; form 1) [listing 1 of 2 here]
- EC50 [1]: 170 nM

Structure (SMILES): CC1(C)CCC(C)(C)c2cc3c(cc21)CCC1(CCc2cc(C(=O)O)ccc2O1)O3 (stereo in doubt; form 2) [listing 1 of 2 here]
- EC50 [1]: 1200 nM

Structure (SMILES): Cc1ccc([C@@H]2[C@H]3C=C(C=O)[C@@H](c4ccc(C)cc4)[C@H]([N+](=O)[O-])[C@@H]3C[C@]23C(=O)N(C)c2ccccc23)cc1
- Kd [2]: 190 nM

Structure (SMILES): COc1ccc2nc3c(nc2c1)O[C@@H]1C[C@H]2C(=O)N[C@]4(C(=O)NS(=O)(=O)C5(C)CC5)C[C@H]4/C=C\CCCCC[C@H](NC(=O)O[C@@H]4CCC[C@H]4CCCCC3)C(=O)N2C1.[K+]
- Cmax [3]: 70 nM
- AUC(0-inf) [4]: 2.4 µM·h

Structure (SMILES): Cc1[nH]nc2c1[C@@]1(C(C#N)=C(N)O2)c2cc(N3CCC(CC(=O)O)CC3)cc(F)c2CC1(C)C
- IC50 [5]: 2510 nM

Structure (SMILES): O=C1Nc2cc(Cl)ccc2C12Cc1ccccc1B(O)O2 (centres undefined)
- logP [6]: < 4
- Stability [7]: > 80%

Structure (SMILES): O=C1Nc2ccc(F)cc2C12Cc1ccccc1B(O)O2 (centres undefined)
- logP [6]: < 4
- Stability [7]: > 80%

Structure (SMILES): c1ccc(CN2CCC3(CCCc4ccccc43)CC2)cc1
- Ratio Ki [8]: 22

Structure (SMILES): CC1(C)CCC(C)(C)c2cc3c(cc21)CCC1(CCc2cc(C(=O)O)ccc2O1)O3 (stereo in doubt; form 2) [listing 2 of 2 here]
- Efficacy [9]: 26%

Structure (SMILES): O=C1Nc2cc(C(F)(F)F)ccc2C12Cc1ccccc1B(O)O2 (centres undefined)
- logP [6]: < 4
- Stability [7]: > 80%

Structure (SMILES): O=C1Nc2ccccc2C12Cc1ccccc1B(O)O2 (centres undefined)
- logP [6]: < 4
- Stability [7]: > 80%

Structure (SMILES): COc1ccc(Cn2nnc3c2[C@]2(CC[C@H]3OC(=O)NC(C)C)CO2)cc1
- EC50 [10]: 94 nM

Structure (SMILES): CN1C(=O)C2(Cc3ccccc3B(O)O2)c2ccccc21 (centres undefined)
- logP [6]: < 4
- Stability [7]: > 80%

Structure (SMILES): Cc1ccc([C@@H]2[C@H]3C=C(C=O)[C@@H](c4ccc(C)cc4)[C@H]([N+](=O)[O-])[C@@H]3C[C@@]23C(=O)N(C)c2ccccc23)cc1
- Kd [2]: 80 nM

Structure (SMILES): NC1CC[Si]2(CCCC2)CC1
- IC50 (Influenza A virus): 7800 nM

Structure (SMILES): NC1CCC2(CCCC2)CC1
- IC50 (Influenza A virus): 3300 nM

Structure (SMILES): Cc1[nH]nc2c1C1(C(C#N)=C(N)O2)c2cc(N3CCC(CC(=O)O)CC3)cc(F)c2CC1(C)C (racemic)
- IC50 [5]: 61 nM

Structure (SMILES): c1ccc(CN2CC[Si]3(CCCc4ccccc43)CC2)cc1
- Ratio Ki [8]: 221

Structure (SMILES): CC1(C)CCC(C)(C)c2cc3c(cc21)CCC1(CCc2cc(C(=O)O)ccc2O1)O3 (racemic) [listing 1 of 2 here]
- EC50 [1]: 730 nM

Structure (SMILES): CC1(C)CCC(C)(C)c2cc3c(cc21)CCC1(CCc2cc(C(=O)O)ccc2O1)O3 (racemic) [listing 2 of 2 here]
- Efficacy ([9]; filed as agonist): 53%

Structure (SMILES): C#CCCCC(=O)OC(C)(C)C1CCC2(CO2)C(OC(=O)N[C@@H](Cc2c[nH]c3ccccc23)C(=O)OCc2ccccc2)C1 (some centres undefined)
- IC50 [11]: 33000 nM
- IC50 (MDA-MB-231): 19000 nM

Structure (SMILES): COc1ccc2nc3c(nc2c1)O[C@@H]1C[C@H]2C(=O)N[C@]4(C(=O)NS(=O)(=O)C5(C)CC5)C[C@H]4/C=C\CCCCC[C@H](NC(=O)O[C@@H]4CCC[C@H]4CCCCC3)C(=O)N2C1
- AUC(0-t) at 4 h [12]: 0.77 µM·h
- Vd [13]: 4 L/kg

Structure (SMILES): CC1(C)CCC(C)(C)c2cc3c(cc21)CCC1(CCc2cc(C(=O)O)ccc2O1)O3 (stereo in doubt; form 1) [listing 2 of 2 here]
- Efficacy ([9]; filed as agonist): 54%

Structure (SMILES): O=C1Nc2ccc(Cl)cc2C12Cc1ccccc1B(O)O2 (centres undefined)
- logP [6]: < 4
- Stability [7]: > 80%

Structure (SMILES): Cc1[nH]nc2c1[C@]1(C(C#N)=C(N)O2)c2cc(N3CCC(CC(=O)O)CC3)cc(F)c2CC1(C)C
- IC50 [5]: 43 nM
